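Exposure lasted 48 hours, with cells grown in 96-well plates and compounds tested at five concentrations. GI50 is the concentration that inhibits growth by half. Definition used: TGI = concentration required for complete inhibition of growth.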
How the values were obtained:
Experiment in all cases: inhibition of tumour cell growth, NCI panel, 48 h
[1] = tested on: SK-MEL-2 melanoma
[2] = tested on: RXF 393 renal
[3] = tested on: SF-539 CNS
[4] = tested on: MDA-MB-231 breast
[5] = tested on: IGROV1 ovarian
[6] = tested on: SNB-75 CNS
[7] = tested on: NCI/ADR-RES ovarian
[8] = tested on: RPMI-8226 leukemia
[9] = tested on: MDA-MB-435
[10] = tested on: OVCAR-5 ovarian
[11] = tested on: TK-10 renal
[12] = tested on: A549 NSCLC
[13] = tested on: HS 578T breast
[14] = tested on: HOP-92 NSCLC
[15] = tested on: OVCAR-3 ovarian
[16] = tested on: UO-31 renal
[17] = tested on: HCT-15 colon
[18] = tested on: COLO 205 colon
[19] = tested on: HCT-116 colon
[20] = tested on: PC-3 prostate
[21] = tested on: HT29 colon
[22] = tested on: LOX IMVI melanoma
[23] = tested on: K-562 leukemia
[24] = tested on: MALME-3M melanoma
[25] = tested on: DU-145 prostate
[26] = tested on: MDA-MB-468 breast
[27] = tested on: MOLT-4 leukemia
[28] = tested on: HL-60(TB) leukemia
[29] = tested on: CAKI-1 renal
[30] = tested on: OVCAR-8 ovarian
[31] = tested on: MCF7 breast
[32] = tested on: CCRF-CEM leukemia
[33] = tested on: U251 CNS
[34] = tested on: SN12C renal
[35] = tested on: UACC-62 melanoma
[36] = tested on: NCI-H23 lung
[37] = tested on: NCI-H522 lung
[38] = tested on: SNB-19 CNS
[39] = tested on: OVCAR-4 ovarian
[40] = tested on: SK-MEL-28 melanoma
[41] = tested on: KM12 colon
[42] = tested on: A498 renal
[43] = tested on: SF-295 CNS
[44] = tested on: SR leukemia
[45] = tested on: NCI-H226 lung
[46] = tested on: 786-0 renal
[47] = tested on: T-47D breast
[48] = tested on: SK-OV-3 ovarian
[49] = tested on: HCC-2998 colon
[50] = tested on: EKVX NSCLC
[51] = tested on: HOP-62 NSCLC
[52] = tested on: NCI-H460 lung
[53] = tested on: BT-549 breast
[54] = tested on: M14 melanoma
[55] = tested on: SK-MEL-5 melanoma
[56] = tested on: UACC-257 melanoma
[57] = tested on: SF-268 CNS
[58] = tested on: SW-620 colon
[59] = tested on: ACHN renal

CC/C(=C(\c1ccc(O)cc1)c1ccc(OCCN(C)C(=O)COCCNC(=O)Cc2ccc3c(c2)CN([C@@H]2CCC(=O)NC2=O)C3=O)cc1)c1ccccc1
GI50 [1]: 6.14 µM | TGI [1]: > 91.8 µM | GI50 [2]: 4.19 µM | TGI [2]: 72.8 µM | GI50 [3]: > 62.6 µM | TGI [3]: > 100 µM | GI50 [4]: 0.142 µM | TGI [4]: 0.801 µM | GI50 [5]: 0.433 µM | TGI [5]: > 100 µM | GI50 [6]: 0.316 µM | TGI [6]: > 94.8 µM | GI50 [7]: > 100 µM | TGI [7]: > 100 µM | GI50 [8]: 5.07 µM | TGI [8]: > 100 µM | GI50 [9]: 17.8 µM | TGI [9]: > 100 µM | GI50 [10]: > 57.6 µM | TGI [10]: > 100 µM | GI50 [11]: > 100 µM | TGI [11]: > 100 µM | GI50 [12]: 46.2 µM | TGI [12]: > 100 µM | GI50 [13]: 0.672 µM | TGI [13]: 11.8 µM | GI50 [14]: 0.177 µM | TGI [14]: 3.05 µM | GI50 [15]: 15.2 µM | TGI [15]: > 100 µM | GI50 [16]: > 100 µM | TGI [16]: > 100 µM | GI50 [17]: > 88.1 µM | TGI [17]: > 100 µM | GI50 [18]: 2.11 µM | TGI [18]: 33.3 µM | GI50 [19]: > 85.7 µM | TGI [19]: > 100 µM | GI50 [20]: 0.703 µM | TGI [20]: > 100 µM | GI50 [21]: > 57.6 µM | TGI [21]: > 100 µM | GI50 [22]: > 84.5 µM | TGI [22]: > 100 µM | GI50 [23]: 16 µM | TGI [23]: > 100 µM | GI50 [24]: 0.306 µM | TGI [24]: 2.49 µM | GI50 [25]: > 100 µM | TGI [25]: > 100 µM | GI50 [26]: 0.0374 µM | TGI [26]: 0.266 µM | GI50 [27]: 0.0517 µM | TGI [27]: 1.1 µM | GI50 [28]: 0.0309 µM | TGI [28]: 0.659 µM | GI50 [29]: 55.1 µM | TGI [29]: > 100 µM | GI50 [30]: 1.56 µM | TGI [30]: 33.4 µM | GI50 [31]: 0.104 µM | TGI [31]: > 100 µM | GI50 [32]: 0.995 µM | GI50 [33]: > 74.9 µM | TGI [33]: > 100 µM | GI50 [34]: 2.27 µM | TGI [34]: > 93 µM | GI50 [35]: 54.2 µM | TGI [35]: > 100 µM | GI50 [36]: > 93.6 µM | TGI [36]: > 100 µM | GI50 [37]: > 21.6 µM | TGI [37]: > 100 µM | GI50 [38]: 1.83 µM | TGI [38]: > 100 µM | GI50 [39]: 11.2 µM | TGI [39]: > 100 µM | GI50 [40]: 21.6 µM | TGI [40]: > 100 µM | GI50 [41]: 8.5 µM | TGI [41]: > 100 µM | GI50 [42]: 38.6 µM | TGI [42]: > 100 µM | GI50 [43]: > 100 µM | TGI [43]: > 100 µM | GI50 [44]: 13.5 µM | TGI [44]: > 74 µM | GI50 [45]: 2.35 µM | TGI [45]: > 26.7 µM | GI50 [46]: 51.7 µM | TGI [46]: > 100 µM | GI50 [47]: 0.0259 µM | TGI [47]: 4.61 µM | GI50 [48]: 10.7 µM | TGI [48]: > 100 µM | GI50 [49]: 1.7 µM | TGI [49]: > 82.3 µM | GI50 [50]: > 47 µM | TGI [50]: > 100 µM | GI50 [51]: 2.28 µM | TGI [51]: 19.1 µM | GI50 [52]: > 100 µM | TGI [52]: > 100 µM | GI50 [53]: 0.15 µM | TGI [53]: 0.743 µM | GI50 [54]: 30.8 µM | TGI [54]: > 100 µM | GI50 [55]: 6.78 µM | TGI [55]: 73.9 µM | GI50 [56]: > 100 µM | TGI [56]: > 100 µM | GI50 [57]: 5.38 µM | TGI [57]: > 100 µM | GI50 [58]: 1.9 µM | TGI [58]: > 100 µM | GI50 [59]: > 100 µM | TGI [59]: > 100 µM

From PubChem BioAssay (NCI)
